# Measured values reported in patent US20230157952A1, “METHOD FOR IMPROVING THE STABILITY OF A PHARMACEUTICAL COMPOSITION COMPRISING A HIGH PENETRATION DRUG, AND THE PHARMACEUTICAL COMPOSITION OBTAINED THEREFROM” (Techfields Inc., priority 2020, published 2023).
# Columns and labels:
# [1] = Effect of temperature (and pH) on the stability of the solution (purity); format: physicochemical; conditions: 7% solution in water
# [2] = Effect of concentration on the stability of the solution (purity over time); conditions: at 5° C. in 15% acetone
smiles,measurement,setting,value
"CCN(CC)CCOC(=O)c1cc(-c2ccc(F)cc2F)ccc1OC(C)=O.Cl [2-(diethylamino)ethyl 5-(2,4-difluorophenyl)-2-acetoxybenzoate•HCl]",Stability of the solution at a temperature higher than 40° C. and a pH lower than 3 or greater than 6,[1],not stable
same,Purity at day 0,[2]; 0.01 wt %,98.2%
same,Purity at day 3,[2]; 0.01 wt %,93.9%
same,Purity at day 7,[2]; 0.01 wt %,88.1%
same,Purity at day 15,[2]; 0.01 wt %,80.3%
same,Purity at day 22,[2]; 0.01 wt %,73.7%
same,Purity at day 28,[2]; 0.01 wt %,67.9%
same,Purity at day 60,[2]; 0.01 wt %,48.1%
same,Purity at day 90,[2]; 0.01 wt %,30.0%
same,Purity at day 0,[2]; 0.1 wt %,98.3%
same,Purity at day 3,[2]; 0.1 wt %,95.1%
same,Purity at day 7,[2]; 0.1 wt %,93.1%
same,Purity at day 15,[2]; 0.1 wt %,89.0%
same,Purity at day 22,[2]; 0.1 wt %,85.3%
same,Purity at day 28,[2]; 0.1 wt %,82.3%
same,Purity at day 60,[2]; 0.1 wt %,70.5%
same,Purity at day 90,[2]; 0.1 wt %,61.2%
same,Purity at day 0,[2]; 1 wt %,98.4%
same,Purity at day 3,[2]; 1 wt %,97.0%
same,Purity at day 7,[2]; 1 wt %,95.9%
same,Purity at day 15,[2]; 1 wt %,94.0%
same,Purity at day 22,[2]; 1 wt %,92.2%
same,Purity at day 28,[2]; 1 wt %,89.7%
same,Purity at day 60,[2]; 1 wt %,79.4%
same,Purity at day 90,[2]; 1 wt %,71.9%
same,Purity at day 0,[2]; 3 wt %,98.5%
same,Purity at day 3,[2]; 3 wt %,97.7%
same,Purity at day 7,[2]; 3 wt %,96.6%
same,Purity at day 15,[2]; 3 wt %,94.9%
same,Purity at day 22,[2]; 3 wt %,92.1%
same,Purity at day 28,[2]; 3 wt %,91.2%
same,Purity at day 60,[2]; 3 wt %,84.4%
same,Purity at day 90,[2]; 3 wt %,79.2%
same,Purity at day 0,[2]; 5 wt %,98.6%
same,Purity at day 3,[2]; 5 wt %,98.2%
same,Purity at day 7,[2]; 5 wt %,97.8%
same,Purity at day 15,[2]; 5 wt %,97.3%
same,Purity at day 22,[2]; 5 wt %,96.1%
same,Purity at day 28,[2]; 5 wt %,95.5%
same,Purity at day 60,[2]; 5 wt %,94.5%
same,Purity at day 90,[2]; 5 wt %,93.9%
same,Purity at day 0,[2]; 7 wt %,98.7%
same,Purity at day 3,[2]; 7 wt %,98.4%
same,Purity at day 7,[2]; 7 wt %,98.4%
same,Purity at day 15,[2]; 7 wt %,98.0%
same,Purity at day 22,[2]; 7 wt %,97.5%
same,Purity at day 28,[2]; 7 wt %,97.2%
same,Purity at day 60,[2]; 7 wt %,96.2%
same,Purity at day 90,[2]; 7 wt %,95.8%
same,Purity at day 0,[2]; 8 wt %,98.6%
same,Purity at day 3,[2]; 8 wt %,98.5%
same,Purity at day 7,[2]; 8 wt %,98.3%
same,Purity at day 15,[2]; 8 wt %,98.1%
same,Purity at day 22,[2]; 8 wt %,97.4%
same,Purity at day 28,[2]; 8 wt %,97.1%
same,Purity at day 60,[2]; 8 wt %,96.0%
same,Purity at day 90,[2]; 8 wt %,95.9%
same,Purity at day 0,[2]; 10 wt %,98.7%
same,Purity at day 3,[2]; 10 wt %,98.5%
same,Purity at day 7,[2]; 10 wt %,98.5%
same,Purity at day 15,[2]; 10 wt %,98.2%
same,Purity at day 22,[2]; 10 wt %,97.7%
same,Purity at day 28,[2]; 10 wt %,97.3%
same,Purity at day 60,[2]; 10 wt %,96.7%
same,Purity at day 90,[2]; 10 wt %,96.1%
same,Purity at day 0,[2]; 15 wt %,98.6%
same,Purity at day 3,[2]; 15 wt %,98.4%
same,Purity at day 7,[2]; 15 wt %,98.4%
same,Purity at day 15,[2]; 15 wt %,98.3%
same,Purity at day 22,[2]; 15 wt %,97.5%
same,Purity at day 28,[2]; 15 wt %,97.2%
same,Purity at day 60,[2]; 15 wt %,96.5%
same,Purity at day 90,[2]; 15 wt %,96.2%
same,Purity at day 0,[2]; 20 wt %,98.7%
same,Purity at day 3,[2]; 20 wt %,98.5%
same,Purity at day 7,[2]; 20 wt %,98.5%
same,Purity at day 15,[2]; 20 wt %,98.3%
same,Purity at day 22,[2]; 20 wt %,98.0%
same,Purity at day 28,[2]; 20 wt %,97.1%
same,Purity at day 60,[2]; 20 wt %,96.6%
same,Purity at day 90,[2]; 20 wt %,96.0%
same,Purity at day 0,[2]; 30 wt %,98.5%
same,Purity at day 3,[2]; 30 wt %,98.5%
same,Purity at day 7,[2]; 30 wt %,98.4%
same,Purity at day 15,[2]; 30 wt %,98.1%
same,Purity at day 22,[2]; 30 wt %,97.9%
same,Purity at day 28,[2]; 30 wt %,97.3%
same,Purity at day 60,[2]; 30 wt %,96.7%
same,Purity at day 90,[2]; 30 wt %,96.2%
same,Purity at day 0,[2]; 50 wt %,98.7%
same,Purity at day 3,[2]; 50 wt %,98.7%
same,Purity at day 7,[2]; 50 wt %,98.5%
same,Purity at day 15,[2]; 50 wt %,98.3%
same,Purity at day 22,[2]; 50 wt %,97.8%
same,Purity at day 28,[2]; 50 wt %,97.2%
same,Purity at day 60,[2]; 50 wt %,96.9%
same,Purity at day 90,[2]; 50 wt %,96.3%
same,Stability when the concentration is 0.1% or lower,[2],not stable
